Test results: PubChem BioAssay AID192 (DTP/NCI, 2004)
Several values for one entry are separate records, joined by “and”; a condition that tells them apart may be missing. Identical values can stand only once. Inconclusive results and toxic doses are left out. Rule for the calls: active = survival T/C of 150% or more; inactive = T/C below 125% in these data.

Tested on: BDF1 mice, B16 melanoma ip, median survival T/C
Experiment: NCI In Vivo Anticancer Drug Screen. Data for tumor model B16 Melanoma (intraperitoneal) in B6D2F1 (BDF1) mice
Conditions: endpoint: median survival time, higher = longer survival
How it was run: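 In this screen, activity was judged from survival or tumor size in treated versus vehicle-treated tumor-bearing mice, reported as T/C.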

[1] = dose: 6.25 mg/kg/injection, schedule: Q01DX009 (ip), vehicle: saline
[2] = dose: 12.5 mg/kg/injection, schedule: Q01DX009 (ip), vehicle: saline
[3] = dose: 25.0 mg/kg/injection, schedule: Q01DX009 (ip), vehicle: saline
[4] = dose: 50.0 mg/kg/injection, schedule: Q01DX009 (ip), vehicle: saline
[5] = dose: 25.0 mg/kg/injection, schedule: Q01DX009 (ip), vehicle: Klucel (hydroxypropylcellulose) (HPC)
[6] = dose: 50.0 mg/kg/injection, schedule: Q01DX009 (ip), vehicle: Klucel (hydroxypropylcellulose) (HPC)
[7] = dose: 100.0 mg/kg/injection, schedule: Q04DX003 (ip), vehicle: Klucel (hydroxypropylcellulose) (HPC)
[8] = dose: 100.0 mg/kg/injection, schedule: Q01DX009 (ip), vehicle: saline
[9] = dose: 12.5 mg/kg/injection, schedule: Q01DX009 (ip), vehicle: Klucel (hydroxypropylcellulose) (HPC)
[10] = dose: 100.0 mg/kg/injection, schedule: Q01DX009 (ip), vehicle: Klucel (hydroxypropylcellulose) (HPC)
[11] = dose: 6.25 mg/kg/injection, schedule: Q01DX009 (ip), vehicle: saline with Tween-80
[12] = dose: 12.5 mg/kg/injection, schedule: Q01DX009 (ip), vehicle: saline with Tween-80
[13] = dose: 50.0 mg/kg/injection, schedule: Q04DX003 (ip), vehicle: Klucel (hydroxypropylcellulose) (HPC)
[14] = dose: 200.0 mg/kg/injection, schedule: Q01DX009 (ip), vehicle: Klucel (hydroxypropylcellulose) (HPC)
[15] = dose: 200.0 mg/kg/injection, schedule: Q04DX003 (ip), vehicle: Klucel (hydroxypropylcellulose) (HPC)
[16] = dose: 400.0 mg/kg/injection, schedule: Q04DX003 (ip), vehicle: Klucel (hydroxypropylcellulose) (HPC)

Measured: T/C

COc1cc(CN(C)C2CCCCC2)cc(OC)c1OC
inactive: dose: 3.12 mg/kg/injection, schedule: Q01DX009 (ip), vehicle: saline 105 % of control | [1] 102 % of control | [2] 95 % of control | [3] 91 % of control | [4] 101 % of control

CCC[CH2][Sn-]([CH2]CCC)([CH2]CCC)[O]c1cc(Cl)c(Cl)cc1Cl
inactive: dose: 0.25 mg/kg/injection, schedule: Q01DX009 (ip), vehicle: Klucel (hydroxypropylcellulose) (HPC) 95 % of control | dose: 0.5 mg/kg/injection, schedule: Q01DX009 (ip), vehicle: Klucel (hydroxypropylcellulose) (HPC) 94 % of control | dose: 1.0 mg/kg/injection, schedule: Q01DX009 (ip), vehicle: Klucel (hydroxypropylcellulose) (HPC) 96 % of control

c1ccc2c(CNC3CCCCC3)c[nH]c2c1
inactive: [5] 89 % of control | [6] 97 % of control | [7] 92 % of control

C/C=C1/CC(C)C(C)(O)C(=O)OCC2CCN3CCC(OC1=O)C23 (stereo not given)
inactive: [2] 109 % of control | [3] 109 % of control | [4] 102 % of control | [8] 107 % of control

CCN(CC)CCCC(C)Nc1c2ccc(Cl)cc2nc2cc(Cl)ccc12 (stereo not given)
inactive: [9] 106 % of control | [5] 106 % of control | [6] 122 % of control

CCCCC(=O)OC1CC2CCC1(C)C2(C)C (stereo not given)
inactive: [10] 90 % of control

CC1(C)N=C(N)N=C(N)N1c1cccc(CCCCOc2ccccc2)c1
inactive: dose: 3.13 mg/kg/injection, schedule: Q01DX009 (ip), vehicle: saline with Tween-80 95 % of control | dose: 3.13 mg/kg/injection, schedule: Q04DX003 (ip), vehicle: saline with Tween-80 109 % of control | [11] 102 % of control | dose: 6.25 mg/kg/injection, schedule: Q04DX003 (ip), vehicle: saline with Tween-80 109 % of control | [12] 102 % of control | dose: 12.5 mg/kg/injection, schedule: Q04DX003 (ip), vehicle: saline with Tween-80 107 % of control

C=CCN(CC=C)c1ccc(N(CC)CC)cc1
inactive: dose: 25.0 mg/kg/injection, schedule: Q04DX003 (ip), vehicle: Klucel (hydroxypropylcellulose) (HPC) 99 % of control | [13] 102 % of control | [7] 88 % of control and 89 % of control

ClCCOC1COC(OCCCl)CO1 (stereo not given)
inactive: dose: 3.12 mg/kg/injection, schedule: Q01DX009 (ip), vehicle: Klucel (hydroxypropylcellulose) (HPC) 103 % of control | dose: 6.25 mg/kg/injection, schedule: Q01DX009 (ip), vehicle: Klucel (hydroxypropylcellulose) (HPC) 98 % of control | [9] 93 % of control | [5] 103 % of control | [6] 96 % of control | [10] 98 % of control | [14] 100 % of control

O=C(Nc1ccccc1)OCC(CN1CCCCC1)OC(=O)Nc1ccccc1 (stereo not given)
inactive: dose: 50.0 mg/kg/injection, schedule: Q04DX003 (ip), vehicle: saline with Tween-80 104 % of control | dose: 100.0 mg/kg/injection, schedule: Q04DX003 (ip), vehicle: saline with Tween-80 102 % of control | dose: 200.0 mg/kg/injection, schedule: Q04DX003 (ip), vehicle: saline with Tween-80 100 % of control

CC/C(=C\c1cccc([N+](=O)[O-])c1)C(=O)O
inactive: [7] 94 % of control | [15] 94 % of control | [16] 91 % of control

Cc1ccc2[nH]c(=O)oc(=O)c2c1
inactive: [13] 98 % of control | [7] 96 % of control | [15] 93 % of control

CC(C)=CCNc1ncnc2c1ncn2C1OC(CO)C(O)C1O (stereo not given)
inactive: [11] 102 % of control | [1] 101 % of control | [12] 103 % of control | [2] 96 % of control | dose: 25.0 mg/kg/injection, schedule: Q01DX009 (ip), vehicle: saline with Tween-80 87 % of control and 107 % of control | [3] 103 % of control | dose: 50.0 mg/kg/injection, schedule: Q01DX009 (ip), vehicle: saline with Tween-80 87 % of control and 98 % of control | [4] 93 % of control | dose: 100.0 mg/kg/injection, schedule: Q01DX009 (ip), vehicle: saline with Tween-80 97 % of control | [8] 115 % of control

CCC[CH2][Sn]1([CH2]CCC)[O]C(=O)C[S]1
inactive: dose: 1.0 mg/kg/injection, schedule: Q01DX009 (ip), vehicle: saline with Tween-80 103 % of control | dose: 2.0 mg/kg/injection, schedule: Q01DX009 (ip), vehicle: saline with Tween-80 101 % of control

C[CH2][Pb]([CH2]C)([CH2]C)[O]C(=O)c1ccccc1
inactive: dose: 0.75 mg/kg/injection, schedule: Q01DX009 (ip), vehicle: Klucel (hydroxypropylcellulose) (HPC) 93 % of control | dose: 1.5 mg/kg/injection, schedule: Q01DX009 (ip), vehicle: Klucel (hydroxypropylcellulose) (HPC) 90 % of control

Cc1cnc2c(=N)n(C(=O)C(F)(F)F)n(C)c2n1
inactive: [10] 90 % of control | [14] 94 % of control

CCOC(=O)NC(C)(C)CN(CCO)C(=O)OCC
inactive: [7] 102 % of control | [16] 100 % of control

O=C(Nc1cccc(C(F)(F)F)c1)Nc1nccs1
inactive: [5] 93 % of control | [6] 95 % of control | [10] 100 % of control | [14] 101 % of control

COc1ccc(C2NC(=O)c3ccccc3N2)c(OC)c1OC (stereo not given)
inactive: [10] 103 % of control | [14] 112 % of control | dose: 400.0 mg/kg/injection, schedule: Q01DX009 (ip), vehicle: Klucel (hydroxypropylcellulose) (HPC) 109 % of control

Cc1cccc(NC(=O)Nc2cccc(Cl)c2)c1C
inactive: [7] 107 % of control | [15] 100 % of control | [16] 103 % of control

Nc1nc(-c2ccccc2N=NN2CCCC2)nc2ccccc12
inactive: [5] 95 % of control | [6] 94 % of control

O=C(Nc1ccc(C(=O)Nc2cc(S(=O)(=O)O)cc3cccc(S(=O)(=O)O)c23)cc1)Nc1ccc(C(=O)Nc2cc(S(=O)(=O)O)cc3cccc(S(=O)(=O)O)c23)cc1
inactive: [6] 108 % of control | [10] 113 % of control | [14] 100 % of control

CCN(CC)CCOC(=O)c1ccccc1N(c1ccccc1)c1ccccc1
inactive: dose: 62.5 mg/kg/injection, schedule: Q01DX009 (ip), vehicle: saline sonified 102 % of control | dose: 125.0 mg/kg/injection, schedule: Q01DX009 (ip), vehicle: saline sonified 89 % of control | dose: 250.0 mg/kg/injection, schedule: Q01DX009 (ip), vehicle: saline sonified 89 % of control
